# Assays:
# c-Kit(V654A) = c-Kit(V654A) (Homo sapiens, UniProt P10721, V654A); experiment: c-Kit(V654A) assay; format: biochemical; conditions: Table 1; 200 μM ATP
# Outline: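 Radiometric filter-binding read-out: after 3% phosphoric acid stop, peptide-incorporated 33P on filtermat scintillation-counted. Enzyme: human c-Kit V654A, residues 544–end, N-terminal GST fusion.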
# [1] = biological target: mutant cKIT (560-576 and V654A) in GIST430/654 cell line (Homo sapiens (Human), UniProt P10721, DEL560-576/V654A); experiment: Cellular testing of cKIT mutant inhibitors: phospho-Y307-cKIT Luminex assay in GIST430/654 cells; format: cell-based; conditions: Table 1; cKIT autophosphorylation, compounds 45 min; read-out: GIST 430/654 IC50
# Outline: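 GIST430/654 cells carrying constitutively active cKIT (Δ560-576/V654A) were grown with 100 nM imatinib, then treated with serially diluted compound for 45 min. Lysates were captured on anti-total-cKIT Luminex beads overnight at 4 °C and probed for phospho-Y307-cKIT. IC50 was fitted from percent of 0.3% DMSO control.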
# Sequence of mutant cKIT (560-576 and V654A) in GIST430/654 cell line (P10721 other isoform, or with tags, fused parts or gaps V654A/del 1-25/del 560-576 limits assumed): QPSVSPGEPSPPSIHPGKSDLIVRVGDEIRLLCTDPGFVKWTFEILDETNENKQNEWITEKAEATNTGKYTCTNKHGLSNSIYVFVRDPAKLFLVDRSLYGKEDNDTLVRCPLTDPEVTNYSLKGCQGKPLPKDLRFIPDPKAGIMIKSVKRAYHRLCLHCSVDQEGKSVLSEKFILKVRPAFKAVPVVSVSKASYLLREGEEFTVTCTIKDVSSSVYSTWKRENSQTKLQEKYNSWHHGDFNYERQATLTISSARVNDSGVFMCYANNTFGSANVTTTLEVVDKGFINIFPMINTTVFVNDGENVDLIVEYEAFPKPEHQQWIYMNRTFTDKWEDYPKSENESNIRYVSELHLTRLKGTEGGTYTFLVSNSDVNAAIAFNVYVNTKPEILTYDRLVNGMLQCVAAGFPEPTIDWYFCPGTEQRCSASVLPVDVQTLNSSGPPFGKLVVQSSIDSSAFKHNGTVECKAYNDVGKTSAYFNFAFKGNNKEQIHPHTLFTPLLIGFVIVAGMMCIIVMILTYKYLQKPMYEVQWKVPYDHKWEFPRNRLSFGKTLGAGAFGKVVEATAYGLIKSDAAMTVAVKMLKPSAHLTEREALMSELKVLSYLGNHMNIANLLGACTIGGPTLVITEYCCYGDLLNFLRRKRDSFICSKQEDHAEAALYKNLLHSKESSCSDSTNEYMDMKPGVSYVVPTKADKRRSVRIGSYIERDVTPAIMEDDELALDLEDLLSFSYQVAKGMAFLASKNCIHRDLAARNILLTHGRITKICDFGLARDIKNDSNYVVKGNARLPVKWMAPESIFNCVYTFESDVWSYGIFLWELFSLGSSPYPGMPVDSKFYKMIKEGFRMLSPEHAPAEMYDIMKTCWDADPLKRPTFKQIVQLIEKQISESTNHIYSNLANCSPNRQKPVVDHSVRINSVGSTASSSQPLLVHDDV
SMILES,IC50 (c-Kit(V654A)) [nM],IC50 [1] [nM]
"COCCOc1cc2[nH]nc(-c3cc(-c4ccc(C(=O)N5CCN(C6COC6)CC5)c(F)c4)no3)c2cc1F [A196, (2-fluoro-4-{5-[5-fluoro-6-(2-methoxy-ethoxy)-1H-indazol-3-yl]-isoxazol-3-yl}-phenyl)-(4-oxetan-3-yl-piperazin-1-yl)-methanone]",3.8,48
"COCCOc1cc2[nH]nc(-c3cc(-c4ccc(OCCN5CCNCC5)cc4)no3)c2cc1F [A134, 5-fluoro-6-(2-methoxyethoxy)-3-(3-{4-[2-(piperazin-1-yl)ethoxy]phenyl}-1,2-oxazol-5-yl)-1H-indazole]",1.5,150
"COCCOc1cc2[nH]nc(-c3cc(-c4ccc(C(=O)N5CC[C@H]5C(C)(C)O)nc4)no3)c2cc1F [A118, (5-{5-[5-fluoro-6-(2-methoxy-ethoxy)-1H-indazol-3-yl]-isoxazol-3-yl}-pyridin-2-yl)-[(S)-2-(1-hydroxy-1-methyl-ethyl)-azetidin-1-yl]-methanone]",7.1,640
"COCCOc1cc2[nH]nc(-c3cc(-c4ccc(C(=O)N5CCN(C6COC6)CC5)c(C)c4)no3)c2cc1F [A193, (4-{5-[5-fluoro-6-(2-methoxy-ethoxy)-1H-indazol-3-yl]-isoxazol-3-yl}-2-methyl-phenyl)-(4-oxetan-3-yl-piperazin-1-yl)-methanone]",2.5,73
"COCCOc1cc2[nH]nc(-c3cc(-c4ccc(C(=O)N5CCN([C@@H]6CCOC6)CC5)cc4)no3)c2cc1F [A185, 5-fluoro-6-(2-methoxyethoxy)-3-[3-(4-{4-[(3R)-oxolan-3-yl]piperazine-1-carbonyl}phenyl)-1,2-oxazol-5-yl]-1H-indazole]",1.1,60
"[2H]C1([2H])N(C(=O)c2ccc(-c3cc(-c4n[nH]c5cc(OCCOC)c(F)cc45)on3)cc2)C([2H])([2H])C([2H])([2H])N(C2COC2)C1([2H])[2H] [A233, 5-fluoro-6-(2-methoxyethoxy)-3-(3-{4-[4-(oxetan-3-yl)(2,2,3,3,5,5,6,6-^2H8)piperazine-1-carbonyl]phenyl}-1,2-oxazol-5-yl)-1H-indazole]",1,76
"COCCNC(=O)c1ccc2c(-c3cc(-c4ccc(C(=O)N(C)C)cc4)no3)n[nH]c2c1 [A25, 3-{3-[4-(dimethylcarbamoyl)phenyl]-1,2-oxazol-5-yl}-N-(2-methoxyethyl)-1H-indazole-6-carboxamide]",30,5700
"COCCOc1cc2[nH]nc(-c3cc(-c4ccc(C(=O)N5CCN(C)C[C@@H]5C)cc4)on3)c2cc1Cl [A10, 5-chloro-3-(5-{4-[(2S)-2,4-dimethylpiperazine-1-carbonyl]phenyl}-1,2-oxazol-3-yl)-6-(2-methoxyethoxy)-1H-indazole]",1.6,180

# These reach a lower IC50 (c-Kit(V654A)). Values come first.
IC50 (c-Kit(V654A)) [nM],IC50 [1] [nM],SMILES
0.76,35,"COCCOc1cc2[nH]nc(-c3cc(-c4ccc(C(=O)N5CC[C@@H]6COC[C@@H]6C5)cc4)no3)c2cc1F (relative stereo) [A215, 3-(3-{4-[(cis)-octahydrofuro[3,4-c]pyridine-5-carbonyl]phenyl}-1,2-oxazol-5-yl)-5-fluoro-6-(2-methoxyethoxy)-1H-indazole]"
0.64,24,"COCCOc1cc2[nH]nc(-c3cc(-c4ccc(C(=O)N5CC(c6ccncc6)C5)cc4)no3)c2cc1F [A120, 5-fluoro-6-(2-methoxyethoxy)-3-(3-{4-[3-(pyridin-4-yl)azetidine-1-carbonyl]phenyl}-1,2-oxazol-5-yl)-1H-indazole]"
0.63,130,"COCCOc1cc2[nH]nc(-c3cc(-c4ccc(C(=O)N5CC(n6ccnc6)C5)cc4)no3)c2cc1F [A85, 5-fluoro-3-(3-{4-[3-(1H-imidazol-1-yl)azetidine-1-carbonyl]phenyl}-1,2-oxazol-5-yl)-6-(2-methoxyethoxy)-1H-indazole]"
